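Step 1: Grow cells in 96-well plates. Step 2: Expose to compound for 48 hours at 5 concentrations. Step 3: Interpolate endpoints linearly; if unreached, use highest concentration. TGI is the concentration that stops growth completely.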
Columns and labels:
Experiment in all cases: NCI tumour cell line growth inhibition, 48 h
[1] = system: KM20L2 colon
[2] = system: UACC-62 melanoma
[3] = system: SF-268 CNS
[4] = system: LXFL 529 NSCLC
[5] = system: OVCAR-5 ovarian
[6] = system: HOP-92 NSCLC
[7] = system: CAKI-1 renal
[8] = system: NCI-H226 lung
[9] = system: HL-60(TB) leukemia
[10] = system: SW-620 colon
[11] = system: LOX IMVI melanoma
[12] = system: NCI-H460 lung
[13] = system: SNB-19 CNS
[14] = system: NCI-H522 lung
[15] = system: EKVX NSCLC
[16] = system: A498 renal
[17] = system: SK-MEL-5 melanoma
[18] = system: COLO 205 colon
[19] = system: HOP-18 NSCLC
[20] = system: 786-0 renal
[21] = system: HCC-2998 colon
[22] = system: OVCAR-3 ovarian
[23] = system: KM12 colon
[24] = system: DLD-1 colon
[25] = system: K-562 leukemia
[26] = system: IGROV1 ovarian
[27] = system: SF-539 CNS
[28] = system: HCT-116 colon
[29] = system: HT29 colon
[30] = system: SK-MEL-28 melanoma
[31] = system: TK-10 renal
[32] = system: RPMI-8226 leukemia
[33] = system: SNB-78 CNS
[34] = system: HOP-62 NSCLC
[35] = system: OVCAR-4 ovarian
[36] = system: MALME-3M melanoma
[37] = system: DMS 273 small cell lung
[38] = system: A549 NSCLC
[39] = system: M14 melanoma
[40] = system: SK-MEL-2 melanoma
[41] = system: M19-MEL melanoma
[42] = system: UO-31 renal
[43] = system: ACHN renal
[44] = system: HCT-15 colon
[45] = system: MOLT-4 leukemia
[46] = system: U251 CNS
[47] = system: CCRF-CEM leukemia
[48] = system: SF-295 CNS
[49] = system: UACC-257 melanoma
[50] = system: SK-OV-3 ovarian
[51] = system: DMS 114 small cell lung
[52] = system: XF 498 CNS
[53] = system: NCI-H23 lung
[54] = system: SN12C renal
[55] = system: OVCAR-8 ovarian
[56] = system: SNB-75 CNS
[57] = system: RXF-631 renal
[58] = system: RXF 393 renal

SMILES: C=C1Oc2nc3ccccc3c(=O)n2C1(C)C
- TGI [1]: > 100 µM
- TGI [2]: > 100 µM
- TGI [3]: > 100 µM
- TGI [4]: > 100 µM
- TGI [5]: > 100 µM
- TGI [6]: > 100 µM
- TGI [7]: > 100 µM
- TGI [8]: > 100 µM
- TGI [9]: > 100 µM
- TGI [10]: > 100 µM
- TGI [11]: > 100 µM
- TGI [12]: > 100 µM
- TGI [13]: > 100 µM
- TGI [14]: > 100 µM
- TGI [15]: > 100 µM
- TGI [16]: > 100 µM
- TGI [17]: > 100 µM
- TGI [18]: > 100 µM
- TGI [19]: > 100 µM
- TGI [20]: > 100 µM
- TGI [21]: > 100 µM
- TGI [22]: > 10 µM
- TGI [23]: > 10 µM
- TGI [24]: > 100 µM
- TGI [25]: > 100 µM
- TGI [26]: > 100 µM
- TGI [27]: > 100 µM
- TGI [28]: > 100 µM
- TGI [29]: > 100 µM
- TGI [30]: > 100 µM
- TGI [31]: > 100 µM
- TGI [32]: > 100 µM
- TGI [33]: > 100 µM
- TGI [34]: > 100 µM
- TGI [35]: > 100 µM
- TGI [36]: > 100 µM
- TGI [37]: > 100 µM
- TGI [38]: > 100 µM
- TGI [39]: > 100 µM
- TGI [40]: > 100 µM
- TGI [41]: > 100 µM
- TGI [42]: > 100 µM
- TGI [43]: > 100 µM
- TGI [44]: > 100 µM
- TGI [45]: > 100 µM
- TGI [46]: > 100 µM
- TGI [47]: > 100 µM
- TGI [48]: > 10 µM
- TGI [49]: > 100 µM
- TGI [50]: > 100 µM
- TGI [51]: > 100 µM
- TGI [52]: > 100 µM
- TGI [53]: > 100 µM
- TGI [54]: > 100 µM
- TGI [55]: > 100 µM

SMILES: O=c1c2cc(Br)cc(Br)c2[nH]c(=S)n1-c1ccccc1
- TGI [1]: > 100 µM
- TGI [2]: > 100 µM
- TGI [3]: > 100 µM
- TGI [5]: > 100 µM
- TGI [6]: > 100 µM
- TGI [7]: > 100 µM
- TGI [8]: > 100 µM
- TGI [10]: > 100 µM
- TGI [11]: > 100 µM
- TGI [12]: > 100 µM
- TGI [13]: > 100 µM
- TGI [56]: > 100 µM
- TGI [15]: > 100 µM
- TGI [16]: > 100 µM
- TGI [17]: > 100 µM
- TGI [18]: > 100 µM
- TGI [19]: > 100 µM
- TGI [20]: > 100 µM
- TGI [21]: > 100 µM
- TGI [22]: > 100 µM
- TGI [23]: > 100 µM
- TGI [24]: > 100 µM
- TGI [25]: > 100 µM
- TGI [26]: > 100 µM
- TGI [27]: > 100 µM
- TGI [28]: > 100 µM
- TGI [29]: > 100 µM
- TGI [30]: > 100 µM
- TGI [31]: > 100 µM
- TGI [32]: > 100 µM
- TGI [33]: > 100 µM
- TGI [34]: > 100 µM
- TGI [35]: > 100 µM
- TGI [36]: > 100 µM
- TGI [37]: > 100 µM
- TGI [38]: > 100 µM
- TGI [39]: > 100 µM
- TGI [40]: > 100 µM
- TGI [41]: > 100 µM
- TGI [42]: > 100 µM
- TGI [43]: > 100 µM
- TGI [44]: > 100 µM
- TGI [46]: > 100 µM
- TGI [47]: > 100 µM
- TGI [48]: > 100 µM
- TGI [49]: > 100 µM
- TGI [50]: > 100 µM
- TGI [51]: > 100 µM
- TGI [57]: > 100 µM
- TGI [52]: 78.9 µM
- TGI [53]: > 100 µM
- TGI [54]: > 100 µM
- TGI [55]: > 100 µM

SMILES: Cc1cc(NS(=O)(=O)c2ccc(NC(=O)c3cccc4c(Nc5ccc(S(=O)(=O)Nc6cc(C)on6)cc5)c5ccccc5nc34)cc2)no1
- TGI [1]: > 100 µM
- TGI [58]: 61.5 µM
- TGI [2]: 35 µM
- TGI [3]: > 100 µM
- TGI [4]: 95.5 µM
- TGI [5]: > 100 µM
- TGI [6]: 41 µM
- TGI [7]: > 100 µM
- TGI [9]: 67 µM
- TGI [10]: > 100 µM
- TGI [11]: 87.5 µM
- TGI [12]: > 100 µM
- TGI [13]: 88.7 µM
- TGI [56]: 77.4 µM
- TGI [14]: 51.7 µM
- TGI [15]: > 100 µM
- TGI [16]: > 100 µM
- TGI [17]: > 100 µM
- TGI [18]: > 100 µM
- TGI [19]: 69.3 µM
- TGI [20]: 89.8 µM
- TGI [22]: > 100 µM
- TGI [23]: > 100 µM
- TGI [24]: > 100 µM
- TGI [25]: > 100 µM
- TGI [26]: 76.5 µM
- TGI [27]: 62 µM
- TGI [29]: > 100 µM
- TGI [30]: > 100 µM
- TGI [32]: > 100 µM
- TGI [33]: > 100 µM
- TGI [34]: > 100 µM
- TGI [35]: > 100 µM
- TGI [36]: > 100 µM
- TGI [37]: > 100 µM
- TGI [38]: > 100 µM
- TGI [39]: > 100 µM
- TGI [40]: 78.4 µM
- TGI [41]: > 100 µM
- TGI [42]: > 100 µM
- TGI [43]: > 100 µM
- TGI [44]: > 100 µM
- TGI [45]: 95.4 µM
- TGI [46]: 86.9 µM
- TGI [47]: > 100 µM
- TGI [48]: > 100 µM
- TGI [49]: > 100 µM
- TGI [50]: > 100 µM
- TGI [51]: > 100 µM
- TGI [52]: 96.1 µM
- TGI [53]: > 100 µM
- TGI [54]: > 100 µM
- TGI [55]: > 100 µM

— PubChem BioAssay (NCI)
